Consider five compounds from patent US20240360122A1, “POLYMORPHIC FORMS AND SALTS OF A GLP-1R AGONIST” (Terns (Suzhou) Biotechnology Co., Ltd., priority 2023, published 2024).

Converted amounts (≈) assume the structure as drawn. Counter-ions that a name gives are not always drawn. Marks after values point to notes of the source that are not given here.

A short description of series [1]: physchem.
Description: 0.1 M KH2PO4 solution: added 1.36 g of solid KH2PO4 into a 100-mL volumetric flask, dissolve with ultrapure water and dilute to volume. 0.1 M K2HPO4 solution: added 1.74 g of solid K2HPO4 into a 100-mL volumetric flask, dissolve with ultrapure water and dilute to volume.
Transferred 100 mL of 0.1 M K2HPO4 solution and 30 mL of 0.1 M KH2PO4 to a 250-mL beaker and mix well. Adjusted to pH 7.4 with the KH2PO4 solution to obtain the aqueous pH 7.4 buffer. Pre-equilibrated n-octanol and aqueous buffer (phosphate pH 7.4 buffer) by adding 10 mL n-octanol and 10 mL aqueous buffer into a glass vial and keep it rolling for 24 hrs.
Weighed approximately 1.0 mg solids into a 3-mL glass vial which contained 2.0 mL of saturated n-octanol and accelerate dissolution by ultrasound sonication. Added 1.0 mL of complementary saturated aqueous buffer into the vial. Prepare samples in triplicate. Sealed the glass vial and mix on a rotary mixer at 25° C. for 24 hrs.
The phases were separated. The pH of the aqueous phase was measured by pH meter, and the concentrations of compounds in each phase were determined by HPLC. Samples in n-octanol phase were diluted 10 times by ACN. Distribution coefficient, referred to as Dow, was calculated as the concentration of the test compound in the n-octanol phase divided by the corresponding concentration in the aqueous phase.
The nature of series [2]: Approximate solubility in different solvents at RT. The series is classed as physicochemical. As to conditions: RT; for solubility: organic solvent or mixture. The procedure: For each experiment, approximately 2 mg of sample was added into a 3-mL glass vial. Corresponding solvents were then added stepwise (50/50/200/700/1000 μL) into the vials until the solids were dissolved visually or a total volume of 2 mL was reached. Solubility results summarized in Table 64 to Table 66 were used to guide the solvent selection in polymorph screening design.

Series [3] in a line: Characterization of Compound 1 freeform forms: form change on storage or drying (XRPD). The class given is physicochemical. The procedure:
Starting from Compound 1 Freeform Type D, polymorph screening experiments were performed under 50 conditions using different solvent-mediated crystallization or solid transition methods. The obtained solids were characterized by XRPD. According to XRPD comparison results, a total of 16 crystal forms were discovered, named as Type A˜P. The characterization results of all the forms were listed in Table 60.
Freeform Type O was obtained after adding anti-solvent toluene into DMSO solution of Freeform Type D and drying at ambient conditions. After drying at RT under vacuum for 1 day, diffraction peaks of Freeform Type K were observed. As Freeform Type K was a DMSO solvate, it is speculated that Freeform Type O was also a DMSO solvate.

A short description of series [4]: Competitive experiments of Type A and Type B in different solvent system at different temperature. The class given is physicochemical. As to conditions: MeOH/MTBE system.
Series [5] is described as follows: Solid state stability at 25° C./60% RH and 40° C./75% RH for 1 week. The series is classed as physicochemical. As for the experimental part:
Each sample was added into a glass vial, sealed by parafilm with several holes, and kept under tested conditions. After one week, samples were taken for XRPD and HPLC purity test.

Series [6] in a line: Hygroscopicity by DVS at 25° C. The class given is physicochemical. As for the experimental part: DVS was measured via a SMS (Surface Measurement Systems) DVS Intrinsic. The relative humidity at 25° C. were calibrated against deliquescence point of LiCl, Mg(NO3)2 and KCl.
A short description of series [7]: Kinetic solubility in water and bio-relevant media (SGF, FaSSIF, FeSSIF) at 37° C. The class given is physicochemical. As to conditions: for S: Solubility: calculated by freeform; for FC: Form change: residual solids by XRPD. As for the experimental part:
Add 4 mL of medium (H2O, SGF, FaSSIF and FeSSIF). • Rolled at 37° C. (˜25 rpm). Sampling at 1, 2, 4 and 24 hrs. • At each time-point, sampled 0.8 mL of solution or suspension into a centrifuge tube prior to centrifugation (12000 rpm, 37° C., 5 min) and filtration through 0.45 μm PTFE membrane. • Tested pH and concentration for the filtrate. Analyze residual solids by XRPD.
0.1 g of NaCl and 0.05 g of Triton X-100 were weighed into a 50-mL volumetric flask. Purified water was added to dissolve the solid. 67.5 μL HCl (38%, 12M) was added after the solid was dissolved completely. pH was then adjusted to 1.8 using HCl (1 M) or NaOH (1 M). Purified water was added to the volume.
0.17 g of anhydrous NaH2PO4, 0.021 g of NaOH and 0.31 g of NaCl were weighed into a 50-mL volumetric flask. ˜48 mL purified water was added to dissolve the solid. pH was adjusted to 6.5 using 1M HCl or 1M NaOH. Purified water was then added to the volume. 0.11 g of SIF powder was added into the volumetric flask.
0.41 mL of acetic acid, 0.20 g of NaOH and 0.59 g of NaCl were weighed into a 50-mL volumetric flask. ˜48 mL purified water was added to dissolve the solid. pH was adjusted to 5.0 using 1M HCl or 1M NaOH. Purified water was then added to the volume. 0.56 g of SIF powder was added into the volumetric flask.

The compound `N#Cc1ccc(COc2cccc(C3CCN(Cc4nc5ccc(C(=O)O)cc5n4Cc4cncs4)CC3)n2)c(F)c1` [Freeform Type A] came in with a logP in series [1] of 4.78. In series [1] (pH 7.2), this compound came in with a logD at 24 h of 1.96. The solubility was 1900 to 6300 µg/mL (≈ 3.26 to 10.8 mM) in series [2] (1,4-Dioxane, thermodynamic from solid, 1,4-Dioxane); 1900 to 6300 µg/mL (≈ 3.26 to 10.8 mM) in series [2] (2-MeTHF, thermodynamic from solid); 1000 to 1900 µg/mL (≈ 1.72 to 3.26 mM) in series [2] (ACN, thermodynamic from solid); 1100 to 2100 µg/mL (≈ 1.89 to 3.6 mM) in series [2] (Anisole, thermodynamic from solid); 1100 to 2100 µg/mL (≈ 1.89 to 3.6 mM) in series [2] (CPME, thermodynamic from solid); more than 40000 µg/mL in series [2] (DMSO, thermodynamic from solid). For the same compound, the solubility is 2000 to 6700 µg/mL (≈ 3.43 to 11.5 mM) in series [2] (EtOAc, thermodynamic from solid); 1100 to 2200 µg/mL (≈ 1.89 to 3.78 mM) in series [2] (IPA, thermodynamic from solid); 1000 to 1900 µg/mL (≈ 1.72 to 3.26 mM) in series [2] (IPAc, thermodynamic from solid); 1000 to 2000 µg/mL (≈ 1.72 to 3.43 mM) in series [2] (MIBK, thermodynamic from solid); less than 1000 µg/mL in series [2] (MTBE, thermodynamic from solid); 6700 to 20000 µg/mL (≈ 11.5 to 34.3 mM) in series [2] (MeOH, thermodynamic from solid). The solubility was less than 1100 µg/mL in series [2] (Toluene, thermodynamic from solid) and less than 1000 µg/mL in series [2] (n-Heptane, thermodynamic from solid). Further, the Approximate solubility result in series [2] (H2O) is “S < 1.1 mg/mL”; in series [2] (THF), “S > 38.0 mg/mL”.
With `N#Cc1ccc(COc2cccc(C3CCN(Cc4nc5ccc(C(=O)O)cc5n4Cc4cncs4)CC3)n2)c(F)c1` [Freeform Type F], in series [3] (after storage at RT), the Form change result is on record as “Change to Freeform Type J after storage at RT”.
Take `N#Cc1ccc(COc2cccc(C3CCN(Cc4nc5ccc(C(=O)O)cc5n4Cc4cncs4)CC3)n2)c(F)c1` [Freeform Type O]: the Form change entry in series [3] (after drying at RT under vacuum) is listed as “Change to Freeform Type K after drying at RT under vacuum”.
For the compound `N#Cc1ccc(COc2cccc(C3CCN(Cc4nc5ccc(C(=O)O)cc5n4Cc4cncs4)CC3)n2)c(F)c1` [Meglumine salt Type B], the “thermodynamic stability, Type A versus Type B” value in series [4] is “thermodynamically more stable”.
With `N#Cc1ccc(COc2cccc(C3CCN(Cc4nc5ccc(C(=O)O)cc5n4Cc4cncs4)CC3)n2)c(F)c1` [Tris salt Type C], the “HPLC peak Area, RRT 0.70” value in series [5] (25° C./60% RH, 1 week) was determined as 0.06%; in series [5] (40° C./75% RH, 1 week), 0.05%; in series [5] (Initial), 0.05%. Also, the “HPLC peak Area, RRT 0.79” value worked out at 0.23% in series [5] (25° C./60% RH, 1 week); 0.25% in series [5] (40° C./75% RH, 1 week); 0.21% in series [5] (Initial). In addition, the “HPLC peak Area, RRT 0.80” value was determined as 0.05% in series [5] (25° C./60% RH, 1 week); 0.05% in series [5] (40° C./75% RH, 1 week); 0.05% in series [5] (Initial). Also, the “HPLC peak Area, RRT 0.85” value in series [5] (25° C./60% RH, 1 week) was 0.07%; in series [5] (40° C./75% RH, 1 week) it was less than 0.05%; in series [5] (Initial) it was 0.08%. Moreover, the “HPLC peak Area, RRT 0.93” value was 0.09% in series [5] (25° C./60% RH, 1 week); 0.09% in series [5] (40° C./75% RH, 1 week); 0.09% in series [5] (Initial). For the same compound, the Form change result in series [5] (25° C./60% RH/Open/1 week) and in series [5] (40° C./75% RH/Open/1 week) was “No” each time. For the same compound, the Purity in series [5] (25° C./60% RH/Open/1 week) worked out at 96.76 Area %; in series [5] (40° C./75% RH/Open/1 week), 96.82 Area %; in series [5] (Initial), 96.55 Area %. In series [5] (25° C./60% RH/open and 40° C./75% RH/open, 1 week), the “solid-state stability: form change and purity decrease” value is “no form change or significant purity decrease”. Moreover, the “HPLC peak Area, RRT 0.99” value in series [5] (40° C./75% RH, 1 week) is recorded as less than 0.05%. For the same compound, the “HPLC peak Area, RRT 1.12” value in series [5] (40° C./75% RH, 1 week) was 0.05%; in series [5] (Initial), 0.06%. Moreover, in series [6] (25° C./80% RH), the “water uptake (DVS)” value is given as 1.44%. Besides, in series [6] (DVS, 25° C.), the hygroscopicity result is on record as “slightly hygroscopic”. Also, the “Water uptake at 25° C./80% RH” value in series [6] (DVS, 25° C./80% RH) was found to be 1.44 wt %. For the same compound, the “For change after DVS” value in series [6] (XRPD after DVS test) is “No”. Besides, the “form change after DVS test (XRPD)” value in series [6] (after DVS test) is “no form change”. In addition, the “S: Solubility” value in series [7] (FaSSIF, 37° C., 1 hr) was 0.16 mg/mL; in series [7] (FaSSIF, 37° C., 2 hrs), 0.29 mg/mL; in series [7] (FaSSIF, 37° C., 4 hrs), 0.28 mg/mL; in series [7] (FaSSIF, 37° C., 24 hrs), 0.04 mg/mL; in series [7] (FeSSIF, 37° C., 1 hr), 0.17 mg/mL; in series [7] (FeSSIF, 37° C., 2 hrs) it was 0.13 mg/mL. For the same compound, the “S: Solubility” value in series [7] (FeSSIF, 37° C., 4 hrs) is given as 0.02* mg/mL; in series [7] (H2O, 37° C., 1 hr), 0.46 mg/mL; in series [7] (H2O, 37° C., 2 hrs), 0.59 mg/mL; in series [7] (H2O, 37° C., 4 hrs), 2.5 mg/mL; in series [7] (H2O, 37° C., 24 hrs) it was 0.99 mg/mL; in series [7] (SGF, 37° C., 1 hr), 0.15 mg/mL. In addition, the “S: Solubility” value in series [7] (SGF, 37° C., 2 hrs) is on record as 0.03* mg/mL; in series [7] (SGF, 37° C., 4 hrs), 0.04* mg/mL; in series [7] (SGF, 37° C., 24 hrs), 0.17 mg/mL. Besides, the “FC: Form change” value was “Yes” in series [7] (FaSSIF, 37° C., 1 hr); “Yes” in series [7] (FaSSIF, 37° C., 2 hrs); “Yes” in series [7] (FaSSIF, 37° C., 4 hrs); “Yes” in series [7] (FaSSIF, 37° C., 24 hrs); “No” in series [7] (FeSSIF, 37° C., 1 hr); “No” in series [7] (FeSSIF, 37° C., 2 hrs). Moreover, the “FC: Form change” value is “No” in series [7] (FeSSIF, 37° C., 4 hrs); “Yes” in series [7] (FeSSIF, 37° C., 24 hrs); “No” in series [7] (H2O, 37° C., 1 hr); “Yes” in series [7] (H2O, 37° C., 2 hrs); “Yes” in series [7] (H2O, 37° C., 4 hrs); “Yes” in series [7] (H2O, 37° C., 24 hrs). Besides, the “FC: Form change” value in series [7] (SGF, 37° C., 1 hr) is given as “No”; in series [7] (SGF, 37° C., 2 hrs), “No”; in series [7] (SGF, 37° C., 4 hrs), “Yes”; in series [7] (SGF, 37° C., 24 hrs) it was “Yes”. In addition, in series [7] (FeSSIF, 37 °C, pH 5, fessif, thermodynamic from solid, FeSSIF, 37° C., at 24 hrs, read-out: solubility in FeSSIF), the solubility at 24 h was found to be 140 µg/mL. For the same compound, the “form change of residual solids (XRPD) after solubility test” value in series [7] (all the media (H2O, SGF, FaSSIF, FeSSIF), after 24 hrs) is recorded as “form change was observed”. For the same compound, the “Kinetic Solubility, 24-h solubility” value in series [7] (in FeSSIF, 24 h, comparison among selected salts and Freeform Type C) is 2) In FeSSIF, the 24-h solubility of Tris salt Type C was higher.
